Patent US6737383B1, “Herbicidal oxadiazolidines” (priority 1999, dated 2004)

Experiments:
bedstraw = experiment: Test B pre/postemergence bedstraw; type: in vivo, Galium aparine
Method in brief: (§1)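 Test chemicals in a non-phytotoxic solvent mixture with surfactant were sprayed preemergence onto planted seeds and postemergence onto plants 2 to 18 cm tall (1- to 4-leaf stage). After twelve to sixteen days in a greenhouse, injury was visually rated against untreated controls from 0 (no effect) to 10 (complete control).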

blackgrass = experiment: Test B pre/postemergence blackgrass; type: in vivo, Alopecurus myosuroides
Method in brief: as §1

wheat = experiment: Test B pre/postemergence wheat; type: in vivo, Triticum aestivum
Method in brief: as §1

corn = experiment: Test B pre/postemergence corn; type: in vivo, Zea mays
Method in brief: as §1

surinam grass = experiment: Test B pre/postemergence surinam grass; type: in vivo, Brachiaria decumbens
Method in brief: as §1

cocklebur = experiment: Test B pre/postemergence cocklebur; type: in vivo, Xanthium strumarium
Method in brief: as §1

pigweed = experiment: Test B pre/postemergence pigweed; type: in vivo, Amaranthus retroflexus
Method in brief: as §1

sugar beet = experiment: Test B pre/postemergence sugar beet; type: in vivo, Beta vulgaris
Method in brief: as §1

wild oat = experiment: Test B pre/postemergence wild oat; type: in vivo, Avena fatua
Method in brief: as §1

purple nutsedge = experiment: Test B pre/postemergence purple nutsedge; type: in vivo, Cyperus rotundus
Method in brief: as §1

smallflower flatsedge = experiment: Test B flood test smallflower flatsedge; type: in vivo, Cyperus difformis
Method in brief: (§2)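 Plants were grown to the 2-leaf stage before treatment with test chemical, then held in a greenhouse for twelve to sixteen days. Injury was visually rated against untreated controls on a 0–10 scale, where 0 is no effect and 10 is complete control.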

velvetleaf = experiment: Test B pre/postemergence velvetleaf; type: in vivo, Abutilon theophrasti
Method in brief: as §1

bamyardgrass = experiment: Test B flood test barnyardgrass; type: in vivo, Echinochloa crus-galli
Method in brief: as §2

soybean = experiment: Test B pre/postemergence soybean; type: in vivo, Glycine max
Method in brief: as §1

crabgrass = experiment: Test B pre/postemergence crabgrass; type: in vivo, Digitaria sanguinalis
Method in brief: as §1

rape = experiment: Test B pre/postemergence rape; type: in vivo, Brassica napus
Method in brief: as §1

[1] = Postemergence, Rate 62 g/ha, scale 0 to 10, 0 is no effect, 10 is complete control
[2] = Postemergence, Rate 250 g/ha, scale 0 to 10, 0 no effect, 10 complete control
[3] = Preemergence, Rate 62 g/ha, scale 0 to 10 (0 no effect, 10 complete control)
[4] = Preemergence, Rate 125 g/ha, scale 0 to 10 (0 no effect, 10 complete control)
[5] = Preemergence, Rate 250 g/ha, scale of 0 to 10 where 0 is no effect and 10 is complete control
[6] = Preemergence, Rate 500 g/ha, scale 0 (no effect) to 10 (complete control)
[7] = Rate 125 g/ha, Postemergence, scale 0 to 10, 0 no effect, 10 complete control
[8] = Rate 500 g/ha, Postemergence, scale 0 to 10, 0 no effect, 10 complete control
[9] = Rate 1000 g/ha, Preemergence, scale 0 to 10 (0 no effect, 10 complete control)
[10] = Postemergence, Rate 125 g/ha, scale of 0 to 10 where 0 is no effect and 10 is complete control
[11] = Postemergence, Rate 1000 g/ha, scale 0 to 10 (0 no effect, 10 complete control)
[12] = Rate 62 g/ha, Postemergence, scale of 0 to 10 where 0 is no effect and 10 is complete control
[13] = Preemergence, Rate 125 g/ha, 0 is no effect, 10 is complete control
[14] = Rate 250 g/ha, Postemergence, scale 0 to 10, 0 is no effect, 10 is complete control
[15] = Rate 500 g/ha, listed under Postemergence (flood test species), scale 0 to 10, 0 no effect, 10 complete control

CC(C)N(C(=O)n1oc(=O)n(C2CCCCC2C(F)(F)F)c1=O)c1ccc(F)cc1 (centres unmarked) [Compound 99]
8: Bedstraw plant response rating (bedstraw; [2]) | Bedstraw plant response rating (bedstraw; [8]) | Barnyardgrass plant response rating (bamyardgrass; [11]) | Crabgrass plant response rating (crabgrass; [11]) | Plant response rating, Crabgrass (crabgrass; [4]) | Crabgrass plant response rating (crabgrass; [8])
5: Bedstraw plant response rating (bedstraw; [7]) | Blackgrass plant response rating (blackgrass; [11]) | Plant response rating, Redroot pigweed (pigweed; [14]) | Sugarbeets plant response rating (sugar beet; [11]) | Sugarbeets plant response rating (sugar beet; [8]) | Wild oats plant response rating (wild oat; [6]) | Velvetleaf plant response rating (velvetleaf; [8]) | Barnyardgrass plant response rating (bamyardgrass; [15]) | Crabgrass plant response rating (crabgrass; [3])
7: Plant response rating, Blackgrass (blackgrass; [9]) | Plant response rating, Cocklebur (cocklebur; [9]) | Redroot pigweed plant response rating (pigweed; [11]) | Redroot pigweed plant response rating (pigweed; [8]) | Plant response rating, Wild oats (wild oat; [9]) | Velvetleaf plant response rating (velvetleaf; [11]) | Rape plant response rating (rape; [11])
0: Bedstraw plant response rating (bedstraw; [3]) | Plant response rating, Bedstraw (bedstraw; [4]) | Plant response rating, Bedstraw (bedstraw; [5]) | Bedstraw plant response rating (bedstraw; [6]) | Plant response rating, Bedstraw (bedstraw; [9]) | Blackgrass plant response rating (blackgrass; [3]) | Wheat plant response rating (wheat; [10]) | Wheat plant response rating (wheat; [3]) | Wheat plant response rating (0 to 10 scale) (wheat; [13]) | Wheat plant response rating (wheat; [12]) | Plant response rating, Wheat (wheat; [14]) | Wheat plant response rating (wheat; [8]) | Corn plant response rating (corn; [10]) | Corn plant response rating (corn; [2]) | Corn plant response rating (corn; [11]) | Corn plant response rating (corn; [3]) | Plant response rating, Corn (corn; [4]) | Plant response rating, Corn (corn; [5]) | Corn plant response rating (corn; [6]) | Corn plant response rating (corn; [12]) | Corn plant response rating (corn; [8]) | B. signalgrass plant response rating (surinam grass; [1]) | B. signalgrass plant response rating (surinam grass; [2]) | B. signalgrass plant response rating (surinam grass; [3]) | Plant response rating, B. signalgrass (surinam grass; [4]) | B. signalgrass plant response rating (surinam grass; [7]) | Cocklebur plant response rating (cocklebur; [3]) | Plant response rating, Cocklebur (cocklebur; [4]) | Plant response rating, Cocklebur (cocklebur; [5]) | Cocklebur plant response rating (cocklebur; [6]) | Cocklebur plant response rating (cocklebur; [12]) | Redroot pigweed plant response rating (pigweed; [3]) | Plant response rating, Redroot pigweed (pigweed; [4]) | Sugarbeets plant response rating (sugar beet; [3]) | Wild oats plant response rating (wild oat; [10]) | Wild oats plant response rating (wild oat; [3]) | Wild oats plant response rating (wild oat; [12]) | Plant response rating, Wild oats (wild oat; [14]) | Wild oats plant response rating (wild oat; [8]) | Nutsedge plant response rating (purple nutsedge; [10]) | Nutsedge plant response rating (purple nutsedge; [2]) | Nutsedge plant response rating (purple nutsedge; [11]) | Nutsedge plant response rating (purple nutsedge; [3]) | Plant response rating, Nutsedge (purple nutsedge; [4]) | Plant response rating, Nutsedge (purple nutsedge; [5]) | Nutsedge plant response rating (purple nutsedge; [12]) | Nutsedge plant response rating (purple nutsedge; [8]) | S. Flatsedge plant response rating (smallflower flatsedge; Postemergence (flood test species), Rate 125 g/ha, scale of 0 to 10 where 0 is no effect and 10 is complete control) | S. Flatsedge plant response rating (smallflower flatsedge; Rate 62 g/ha, Postemergence section, flood test species, scale of 0 to 10 where 0 is no effect and 10 is complete control) | Plant response rating, S. Flatsedge (smallflower flatsedge; Rate 250 g/ha, Postemergence (flood test), scale 0 to 10, 0 is no effect, 10 is complete control) | Velvetleaf plant response rating (velvetleaf; [3]) | Velvetleaf plant response rating (0 to 10 scale) (velvetleaf; [13]) | Plant response rating, Velvetleaf (velvetleaf; [5]) | Velvetleaf plant response rating (velvetleaf; [12]) | Plant response rating, Velvetleaf (velvetleaf; [9]) | Barnyardgrass plant response rating (bamyardgrass; [1]) | Barnyardgrass plant response rating (bamyardgrass; Rate 125 g/ha, Postemergence section (flood test species), scale 0 to 10, 0 no effect, 10 complete control) | Barnyardgrass plant response rating (bamyardgrass; flood test, listed under Postemergence, Rate 250 g/ha, scale 0 to 10, 0 no effect, 10 complete control) | Soybean plant response rating (soybean; [3]) | Plant response rating, Soybean (soybean; [4]) | Plant response rating, Soybean (soybean; [5]) | Soybean plant response rating (soybean; [6]) | Crabgrass plant response rating (crabgrass; [12]) | Rape plant response rating (rape; [3]) | Plant response rating, Rape (rape; [4]) | Plant response rating, Rape (rape; [5])
2: Wheat plant response rating (wheat; [11]) | Plant response rating, Wheat (wheat; [5]) | Wheat plant response rating (wheat; [6]) | Plant response rating, Wheat (wheat; [9]) | Plant response rating, Corn (corn; [9]) | Plant response rating, B. signalgrass (surinam grass; [5]) | B. signalgrass plant response rating (surinam grass; Rate 500 g/ha, Postemergence, scale of 0 to 10 where 0 is no effect and 10 is complete control) | Cocklebur plant response rating (cocklebur; [10]) | Cocklebur plant response rating (cocklebur; [2]) | Sugarbeets plant response rating (0 to 10 scale) (sugar beet; [13]) | Plant response rating, Sugarbeets (sugar beet; [5]) | Sugarbeets plant response rating (sugar beet; [12]) | S. Flatsedge plant response rating (smallflower flatsedge; [15]) | Soybean plant response rating (soybean; [10]) | Soybean plant response rating (soybean; [12]) | Plant response rating, Soybean (soybean; [9]) | Crabgrass plant response rating (crabgrass; [10]) | Rape plant response rating (rape; [10]) | Rape plant response rating (rape; [12])
6: Blackgrass plant response rating (blackgrass; [2]) | Blackgrass plant response rating (blackgrass; [8]) | Plant response rating, B. signalgrass (surinam grass; [9]) | Plant response rating, Sugarbeets (sugar beet; [9]) | Nutsedge plant response rating (purple nutsedge; [6]) | Rape plant response rating (rape; [8]) | Plant response rating, Rape (rape; [9])
10: Redroot pigweed plant response rating (pigweed; [6]) | Plant response rating, Redroot pigweed (pigweed; [9]) | Plant response rating, Nutsedge (purple nutsedge; [9]) | Plant response rating, Crabgrass (crabgrass; [5]) | Crabgrass plant response rating (crabgrass; [6]) | Plant response rating, Crabgrass (crabgrass; [9])
4: Plant response rating, Blackgrass (blackgrass; [5]) | Blackgrass plant response rating (blackgrass; [6]) | B. signalgrass plant response rating (surinam grass; [11]) | Cocklebur plant response rating (cocklebur; [11]) | Redroot pigweed plant response rating (pigweed; [10]) | Plant response rating, Redroot pigweed (pigweed; [5]) | Sugarbeets plant response rating (sugar beet; [10]) | Sugarbeets plant response rating (sugar beet; [6]) | Plant response rating, Sugarbeets (sugar beet; [14]) | Soybean plant response rating (soybean; [8]) | Crabgrass plant response rating (crabgrass; [2]) | Rape plant response rating (rape; [2])
3: Bedstraw plant response rating (bedstraw; [1]) | Blackgrass plant response rating (blackgrass; [10]) | Plant response rating, Blackgrass (blackgrass; [4]) | Blackgrass plant response rating (blackgrass; [12]) | B. signalgrass plant response rating (surinam grass; [6]) | Cocklebur plant response rating (cocklebur; [8]) | Redroot pigweed plant response rating (pigweed; [12]) | Wild oats plant response rating (wild oat; [11]) | Wild oats plant response rating (0 to 10 scale) (wild oat; [13]) | Plant response rating, Wild oats (wild oat; [5]) | S. Flatsedge plant response rating (smallflower flatsedge; [11]) | Velvetleaf plant response rating (velvetleaf; [10]) | Velvetleaf plant response rating (velvetleaf; [6]) | Plant response rating, Velvetleaf (velvetleaf; [14]) | Soybean plant response rating (soybean; [11]) | Plant response rating, Soybean (soybean; [14]) | Rape plant response rating (rape; [6])
